Patent publication US6949522B2, “β-2′- or 3′-halonucleosides” (Pharmasset, Inc., priority 2001, dated 2005)
Where two headings read alike, the source gives them in different places. Marks after values point to notes of the source that are not given here.

Columns and labels:
Type in all cases: cell-based, human
β-actin gene = conditions: 7 days
Protocol: (§1) Low passage number HepG2 cells, obtained from American Tissue Culture Collection (ATCC, Manassas, Va.) were seeded at 5,000 cells/well in collagen-coated 96-well plates. Test compounds were added to the media to obtain a final concentration of 10 μM. On culture day 7, cellular nucleic acids were prepared by using commercially available columns (RNeasy 96 kit, Qiagen). […] The mitochondrial cytochrome C oxidase subunit II (COXII) gene and the β-actin or rRNA gene were amplified from 5 μL with a multiplex Q-PCR protocol using the suitable primers and probes for both target and reference (designed using the Primer Express software, Applied Biosystems); • for COXII. • sense primer 5′-[…]-3′ (Sequence 7); • probe 5′-TET-[…]-TAMRA-3′ (Sequence 8); and • antisense probe 5′-[…]-3′ (Sequence 9); • for exon 3 of β-actin (GenBank E01094): • sense primer 5′-[…]-3′ (Sequence 10); • probe 5′-6FAM-[…]-TAMRA-3′ (Sequnece 11); and • antisense probe 5′-[…]-3′ (Sequence 12).
(§2) The rRNA gene primers and probes were purchased from Applied Biosystems. Standard curves using 1-log diluted total HepG2 DNA were linear over more than 5 logs. In addition, efficiencies of target (COXII DNA) and reference (β-actin DNA or rRNA) amplification were approximately equal, because the slope of the ΔCt line (Ct β-actin minus Ct mitochondrial) was less than 0.1 (not shown). Since equal amplification efficiencies were obtained for both genes, the comparative cycle threshold (Ct) method was used to investigate potential inhibition of the mitochondrial DNA polymerase γ. The comparative Ct method uses arithmetic formulas in which the amount of target (COXII gene) is normalized to an endogenous reference (β-actin gene or rRNA gene) and is relative to a calibrator (no drug control at day 7). The arithmetic formula for this approach is given by 2-ΔΔCt (User bulletin # 2, Applied Biosystems).
(§3) In order to study the consequences of possible inhibitory effects of these compounds on host DNA polymerases, nuclear and rnitochondrial DNA levels were quantified and compared to no-treatment controls. Cells were incubated for 7 days with 10 μM of each compound, followed by total nucleic acid extractions and multiplex Q-PCR of the rRNA gene and the mitochondrial COXII gene. Nucleic acids from cells exposed to the control compounds were also amplified in multiplex for mitDNA and the β-actin gene. The results are presented in Table 4 using the comparative Ct method.

[1] = tested on: mitochondrial cytochrome C oxidase subunit II (COXII) gene; conditions: HepG2, 10 μM, 7 days; for COXIINβ-actin DNA (range) relative to control: COXII DNA normalized to β-actin DNA
From the text: The Q-RT-PCR technology was also used to evaluate potential mitochondrial γ-DNA polymerase inhibition by the compounds of the present invention in relevant human cells. […] Since active nucleoside compounds in the triphosphate form lack a 3′-OH, thereby stopping virus replication by chain termination, there is a concern that these nucleoside analogues are also substrates for the human DNA polymerase γ, resulting in inhibition of mitochondrial DNA replication and subsequently toxic side effects (11, 19). In an attempt to provide direct quantifiable data on mitochondrial DNA levels intracellular, a Q-PCR technology was designed and relative quantification of COXII DNA levels were calculated using the comparative Ct method. […] Also, in agreement with previous observations, no changes in normalized mitochondrial DNA levels were observed after FIAU and D4T treatment (6, 8, 23).
as §1, §2, §3

rRNA gene = conditions: HepG2, 10 μM, 7 days
Protocol: Low passage number HepG2 cells, obtained from American Tissue Culture Collection (ATCC, Manassas, Va.) were seeded at 5,000 cells/well in collagen-coated 96-well plates. Test compounds were added to the media to obtain a final concentration of 10 μM. On culture day 7, cellular nucleic acids were prepared by using commercially available columns (RNeasy 96 kit, Qiagen).
The rRNA gene primers and probes were purchased from Applied Biosystems. […] The comparative Ct method uses arithmetic formulas in which the amount of target (COXII gene) is normalized to an endogenous reference (β-actin gene or rRNA gene) and is relative to a calibrator (no drug control at day 7). The arithmetic formula for this approach is given by 2-ΔΔCt (User bulletin # 2, Applied Biosystems).
as §3, with “gene.” for “gene. The results are presented in Table 4 using the comparative Ct method.”

Average ΔCt ± SD β-actin DNA (β-actin gene; human, 10 μM) | Average ΔCt ± SD COXII DNA [1] | Compound | Average ΔCt ± SD β-actin DNA (β-actin gene; HepG2, 10 μM) | COXIINrDNA (range) relative to control ([1]; COXII DNA normalized to rDNA, 2-ΔΔCt) | COXIINβ-actin DNA (range) relative to control ([1]; 2-ΔΔCt) | Average ΔΔCt ± SD COXII-rDNA [1] | Average ΔΔCt ± SD COXII-β-actin [1] | effect on (normalized) mitochondrial COXII DNA levels, in words [1] | Average ΔCt ± SD rDNA (rRNA gene) | Average ΔΔCt ± SD rDNA-β-actin (rRNA gene)
– | – | Nc1ccn(C2CSC(CO)O2)c(=O)n1 (single isomer, unassigned; (+)) [(+)-BCH-189, (+)-β-2′,3′-dideoxy-3′-thiacytidine] | −0.36 ± 0.31 | 0.20 (0.13-0.32) | 0.17 (0.14-0.22) | 2.3 ± 0.66^d | 2.53 ± 0.36^d | reduce rnitochondrial COXII DNA levels | −0.14 ± 0.61 | 0.23 ± 0.39
0.17 ± 0.01 | −0.37 ± 0.08 | Nc1nc2c(ncn2COCCO)c(=O)[nH]1 [ACV, 9-(2-hydroxyethoxymethyl)guanine] | – | – | 1.45 (1.34-1.52) | – | −0.54 ± 0.06 | – | – | –
